Assay results as given in US10590116B2, “3-indolyl furanoids as inhibitors of matrix metalloproteinase-9 for prevention of gastric ulcer and other inflammatory diseases” (Council of Scientific & Industrial Research, priority 2017, dated 2020).

The compounds below were run against MMP-9 (Homo sapiens, UniProt P14780) (assay: In vitro analysis of anti-ulcer efficacy (structure-activity discussion)). Conditions: method not described.
Chain of MMP-9 (P14780 94-707, species assumed): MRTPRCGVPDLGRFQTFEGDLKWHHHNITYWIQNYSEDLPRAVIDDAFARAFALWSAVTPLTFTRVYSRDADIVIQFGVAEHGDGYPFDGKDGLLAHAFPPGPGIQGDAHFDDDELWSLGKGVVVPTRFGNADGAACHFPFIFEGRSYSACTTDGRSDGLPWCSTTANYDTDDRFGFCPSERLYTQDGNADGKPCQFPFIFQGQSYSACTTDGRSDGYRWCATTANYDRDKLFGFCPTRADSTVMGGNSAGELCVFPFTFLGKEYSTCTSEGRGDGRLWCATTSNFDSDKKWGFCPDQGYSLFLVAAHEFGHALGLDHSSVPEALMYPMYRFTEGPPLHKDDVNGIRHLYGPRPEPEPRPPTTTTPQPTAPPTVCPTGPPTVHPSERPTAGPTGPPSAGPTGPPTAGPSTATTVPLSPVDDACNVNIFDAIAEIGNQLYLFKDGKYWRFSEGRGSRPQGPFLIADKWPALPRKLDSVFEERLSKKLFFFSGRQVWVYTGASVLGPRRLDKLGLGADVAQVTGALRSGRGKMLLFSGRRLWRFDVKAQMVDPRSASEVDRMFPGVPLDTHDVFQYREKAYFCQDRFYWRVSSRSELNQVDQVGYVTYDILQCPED

Row | Compound | anti-ulcer efficacy in vitro
1 | CCCOc1ccc2[nH]cc(-c3cc(-c4ccccc4)oc3-c3ccccc3)c2c1 [compound 4, 3-(2,5-diphenylfuran-3-yl)-5-propoxy-1H-indole] | moderate anti-ulcer efficacy
2 | Cc1c(-c2cc(-c3ccccc3)oc2-c2ccccc2)c2ccccc2n1C [compound 11, 1,2-dimethyl-3-(2,5-diphenylfuran-3-yl)-1H-indole] | not acceptable to have good anti-ulcer activity
3 | C=CCOc1ccc2[nH]cc(-c3cc(-c4ccccc4)oc3-c3ccccc3)c2c1 [compound 3, 5-(allyloxy)-3-(2,5-diphenylfuran-3-yl)-1H-indole] | moderate anti-ulcer efficacy
4 | COc1cccc2c1c(-c1cc(-c3ccccc3)oc1-c1ccccc1)cn2C [compound 12, 4-methoxy-1-methyl-3-(2,5-diphenylfuran-3-yl)-1H-indole] | not acceptable to have good anti-ulcer activity

The compounds below were run on indomethacin-induced acute gastric ulcers (assay: Protection studies of gastric ulceration in vivo (indomethacin-induced acute gastric ulcer, ulcer index)). Conditions: Mus musculus, po, 4 h; 12 mg/kg body weight, indomethacin 80 mg/kg, Balb/c mice.
Parameters: species or system Balb/c mice
Protocol: Animal experiments were carried out using Balb/c mice (20-25 g). Animals were anesthetized with ketamine (12 mg/kg b.w.) prior to cervical dislocation. Control and experimental animals were fasted for 6 hr with free access to water.
Balb/c mice (20-25 g) bred in-house with free access to food and water was used for all experiments. Experiments were designed to minimize animal suffering and to use the minimum number associated with valid statistical evaluation. Animals were anesthetized with ketamine (12 mg/kg b.w.) followed by cervical dislocation. Animal experiments were carried out following the guidelines of animal ethics committee of the institute. Control and experimental animals were fasted for 6 h with free access to water.
Before ulcer induction, animals of both control and experimental groups were kept separately in standard controlled conditions. Acute gastric ulcers were induced by oral administration of indomethacin at a dose of 80 mg/kg b.w. The control group received the vehicle only (olive oil), whereas the experimental group received indomethacin for gastric ulceration. After 4 h, the animals were sacrificed and gastric lesions in the fundic stomach were scored and expressed as obtained by counting the number of red bands/dots as follows: 0=no pathology; 1=a small pinhead ulcer spot; and 2-5=a band like lesion of 2-5 mm length. Total score become ˜50 when ulcer is severe. The sum of the total scores as divided by the number of animals was expressed as the mean ulcer index. Formulations were administered orally 30 min prior to indomethacin treatment to check the gastroprotective effect. Among all the chemical compositions of 3-indolyl furanoids synthesized (table 1), compounds 1, 2, 5, 8, 9 and 12 were tested for prevention studies against gastric inflammation in vivo.

Row | Compound | inhibition in vivo at 12 mg/kg
5 | COc1ccc2[nH]c([S+]([O-])Cc3ncc(C)c(OC)c3C)nc2c1 (centres unmarked) [Omeprazole, reference compound] | 100%

Same assay, conditions: Mus musculus; 50 mg/kg body weight oral in olive oil, indomethacin 80 mg/kg, scored after 4 h, Balb/c mice

Row | Compound | inhibition in vivo at 50 mg/kg
6 | c1ccc(-c2cc(-c3c(-c4ccccc4)[nH]c4ccccc34)c(-c3ccccc3)o2)cc1 [compound 8, 2-phenyl-3-(2,5-diphenylfuran-3-yl)-1H-indole] | 65%
7 | Oc1ccc2[nH]cc(-c3cc(-c4ccccc4)oc3-c3ccccc3)c2c1 [compound 1, 3-(2,5-diphenylfuran-3-yl)-1H-indol-5-ol] | 78%
8 | Oc1ccccc1-c1[nH]c2ccccc2c1-c1cc(-c2ccccc2)oc1-c1ccccc1 [compound 9, 3-(2,5-diphenylfuran-3-yl)-2-(2-hydroxyphenyl)-1H-indole] | 72%
9 | COc1ccc2[nH]cc(-c3cc(-c4ccccc4)oc3-c3ccccc3)c2c1OC [compound 6, 4,5-dimethoxy-3-(2,5-diphenylfuran-3-yl)-1H-indole] | 74%
10 | COc1cccc2c1c(-c1cc(-c3ccccc3)oc1-c1ccccc1)cn2C [compound 12, 4-methoxy-1-methyl-3-(2,5-diphenylfuran-3-yl)-1H-indole] | 56%
11 | COc1ccc2[nH]cc(-c3cc(-c4ccccc4)oc3-c3ccccc3)c2c1 [compound 2, 3-(2,5-diphenylfuran-3-yl)-5-methoxy-1H-indole] | 83%
